Read-outs that look alike come from different tables or passages of the source.

What all share (test): SelectScreen Kinase Profiling, single point inhibition and IC50 for off-target kinases
Format in all cases: biochemical

The target of test [1] is T1, off-target kinases (Homo sapiens, UniProt Q9BZL6).
T1 sequence (Q9BZL6 1-878): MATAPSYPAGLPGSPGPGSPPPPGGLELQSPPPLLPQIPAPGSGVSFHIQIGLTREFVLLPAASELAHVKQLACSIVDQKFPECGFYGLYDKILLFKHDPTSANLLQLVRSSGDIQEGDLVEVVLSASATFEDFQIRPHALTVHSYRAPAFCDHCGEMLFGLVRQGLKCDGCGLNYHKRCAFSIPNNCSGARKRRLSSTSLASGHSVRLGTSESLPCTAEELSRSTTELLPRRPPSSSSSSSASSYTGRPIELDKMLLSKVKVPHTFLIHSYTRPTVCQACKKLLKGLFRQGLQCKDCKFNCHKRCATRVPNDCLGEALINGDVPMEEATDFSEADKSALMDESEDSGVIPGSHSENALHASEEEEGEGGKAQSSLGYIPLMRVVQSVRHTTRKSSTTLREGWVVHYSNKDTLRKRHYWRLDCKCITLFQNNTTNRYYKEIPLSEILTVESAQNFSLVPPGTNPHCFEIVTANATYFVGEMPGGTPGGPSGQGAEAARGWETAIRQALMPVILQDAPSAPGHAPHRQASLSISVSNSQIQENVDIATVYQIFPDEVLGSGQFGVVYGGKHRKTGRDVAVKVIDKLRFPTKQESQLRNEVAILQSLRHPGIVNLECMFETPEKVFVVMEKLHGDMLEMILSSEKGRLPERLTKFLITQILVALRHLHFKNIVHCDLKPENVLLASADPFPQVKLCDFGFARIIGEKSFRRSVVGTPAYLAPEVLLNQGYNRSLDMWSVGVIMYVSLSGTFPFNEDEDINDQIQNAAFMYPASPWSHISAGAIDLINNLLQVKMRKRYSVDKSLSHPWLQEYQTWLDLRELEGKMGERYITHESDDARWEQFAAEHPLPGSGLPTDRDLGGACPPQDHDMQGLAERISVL
The following applies: PRKD2 (PKD2), ATP Km app, ZLYTE.

Test [2] concerns the target off-target kinases (Homo sapiens, UniProt Q16513). The conditions noted are these: PKN2 (PRK2), LanthaScreen Binding. (In general: Time-resolved FRET reads energy transfer from a long-lived donor to a nearby acceptor.)
Test [3] deals with off-target kinases (Homo sapiens, UniProt Q9H0K1). The following applies: SNF1LK2, ATP Km app, ZLYTE.
The target in test [4] is off-target kinases (Homo sapiens, UniProt Q9Y6E0). The conditions noted are these: STK24 (MST3), ZLYTE, ATP Km app.
Test [5] deals with off-target kinases (Homo sapiens, UniProt Q9Y4K4). The following applies: MAP4K5 (KHS1), ZLYTE, ATP Km app.
The target in test [6] is T2, off-target kinases (Homo sapiens, UniProt Q04771).
T2 sequence (Q04771 21-509): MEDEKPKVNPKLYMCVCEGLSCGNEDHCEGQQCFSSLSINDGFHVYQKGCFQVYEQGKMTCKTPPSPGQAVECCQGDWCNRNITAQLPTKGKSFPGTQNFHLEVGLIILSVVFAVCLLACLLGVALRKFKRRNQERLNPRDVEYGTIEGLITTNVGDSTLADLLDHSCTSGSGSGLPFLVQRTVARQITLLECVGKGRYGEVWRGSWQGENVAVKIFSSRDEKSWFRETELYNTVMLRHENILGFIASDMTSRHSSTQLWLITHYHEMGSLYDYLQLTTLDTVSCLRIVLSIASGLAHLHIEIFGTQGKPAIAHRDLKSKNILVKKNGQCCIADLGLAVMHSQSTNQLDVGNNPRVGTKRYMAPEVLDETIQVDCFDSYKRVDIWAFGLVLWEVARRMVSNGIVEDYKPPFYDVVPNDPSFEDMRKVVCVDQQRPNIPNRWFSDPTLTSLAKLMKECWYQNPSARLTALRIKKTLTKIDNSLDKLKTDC
The following applies: ACVR1 (ALK2), LanthaScreen Binding.

off-target kinases (Homo sapiens, UniProt Q9Y4K4), sequence (Q9Y4K4 whole entry): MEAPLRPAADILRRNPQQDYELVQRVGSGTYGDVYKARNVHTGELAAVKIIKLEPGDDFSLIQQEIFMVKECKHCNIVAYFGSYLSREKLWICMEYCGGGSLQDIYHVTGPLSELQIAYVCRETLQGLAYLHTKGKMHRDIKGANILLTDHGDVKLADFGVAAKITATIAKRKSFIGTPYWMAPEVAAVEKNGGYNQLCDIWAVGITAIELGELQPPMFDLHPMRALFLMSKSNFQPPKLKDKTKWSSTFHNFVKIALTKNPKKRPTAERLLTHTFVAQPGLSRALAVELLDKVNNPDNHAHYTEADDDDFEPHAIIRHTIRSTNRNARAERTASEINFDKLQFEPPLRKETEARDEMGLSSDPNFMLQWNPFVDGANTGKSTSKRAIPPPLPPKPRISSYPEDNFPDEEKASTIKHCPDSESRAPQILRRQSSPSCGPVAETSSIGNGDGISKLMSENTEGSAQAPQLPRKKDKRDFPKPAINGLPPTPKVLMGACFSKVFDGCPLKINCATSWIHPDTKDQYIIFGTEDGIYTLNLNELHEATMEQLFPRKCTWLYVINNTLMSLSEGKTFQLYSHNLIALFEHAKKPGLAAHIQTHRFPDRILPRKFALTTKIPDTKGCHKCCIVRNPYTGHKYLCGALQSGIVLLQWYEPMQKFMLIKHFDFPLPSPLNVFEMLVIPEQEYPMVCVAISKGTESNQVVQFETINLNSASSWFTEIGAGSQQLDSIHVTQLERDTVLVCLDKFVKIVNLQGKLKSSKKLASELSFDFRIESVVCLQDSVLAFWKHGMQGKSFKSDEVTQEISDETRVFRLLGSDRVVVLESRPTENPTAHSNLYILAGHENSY
off-target kinases (Homo sapiens, UniProt Q16513), sequence (Q16513 whole entry): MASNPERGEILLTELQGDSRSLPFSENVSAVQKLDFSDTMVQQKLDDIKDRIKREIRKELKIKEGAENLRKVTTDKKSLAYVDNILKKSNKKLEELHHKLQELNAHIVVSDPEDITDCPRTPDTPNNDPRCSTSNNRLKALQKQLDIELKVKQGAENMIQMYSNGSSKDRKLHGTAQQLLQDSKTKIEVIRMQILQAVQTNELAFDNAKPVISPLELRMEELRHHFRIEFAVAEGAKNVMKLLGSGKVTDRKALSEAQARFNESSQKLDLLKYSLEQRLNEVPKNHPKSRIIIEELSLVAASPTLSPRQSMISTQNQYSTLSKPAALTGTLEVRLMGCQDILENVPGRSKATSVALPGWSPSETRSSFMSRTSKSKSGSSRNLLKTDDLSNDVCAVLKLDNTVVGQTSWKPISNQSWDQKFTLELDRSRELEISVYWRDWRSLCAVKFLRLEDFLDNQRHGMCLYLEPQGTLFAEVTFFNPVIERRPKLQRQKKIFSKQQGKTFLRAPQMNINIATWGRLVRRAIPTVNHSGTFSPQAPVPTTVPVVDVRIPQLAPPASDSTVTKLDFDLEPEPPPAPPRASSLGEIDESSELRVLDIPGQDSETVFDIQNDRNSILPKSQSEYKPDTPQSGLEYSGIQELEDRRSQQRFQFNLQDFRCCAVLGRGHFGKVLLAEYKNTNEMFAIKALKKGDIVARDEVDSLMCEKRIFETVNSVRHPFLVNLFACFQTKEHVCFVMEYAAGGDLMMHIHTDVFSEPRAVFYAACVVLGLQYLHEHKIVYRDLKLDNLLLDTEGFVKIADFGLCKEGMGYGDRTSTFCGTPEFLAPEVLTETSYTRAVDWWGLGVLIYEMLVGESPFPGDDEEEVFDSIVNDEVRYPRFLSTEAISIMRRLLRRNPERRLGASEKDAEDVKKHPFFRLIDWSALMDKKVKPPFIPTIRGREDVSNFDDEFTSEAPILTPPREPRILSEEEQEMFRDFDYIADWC
off-target kinases (Homo sapiens, UniProt Q9Y6E0), sequence (Q9Y6E0 whole entry): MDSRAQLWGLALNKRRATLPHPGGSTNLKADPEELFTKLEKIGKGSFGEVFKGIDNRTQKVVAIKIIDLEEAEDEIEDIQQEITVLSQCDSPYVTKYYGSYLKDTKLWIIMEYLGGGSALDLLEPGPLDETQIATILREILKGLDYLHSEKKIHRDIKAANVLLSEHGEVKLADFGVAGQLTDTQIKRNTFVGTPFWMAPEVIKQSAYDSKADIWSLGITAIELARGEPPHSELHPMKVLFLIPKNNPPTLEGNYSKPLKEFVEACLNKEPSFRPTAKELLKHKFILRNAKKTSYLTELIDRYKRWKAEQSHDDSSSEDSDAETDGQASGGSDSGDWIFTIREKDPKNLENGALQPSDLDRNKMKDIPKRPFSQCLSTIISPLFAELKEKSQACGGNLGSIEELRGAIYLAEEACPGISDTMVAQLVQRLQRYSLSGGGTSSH
off-target kinases (Homo sapiens, UniProt Q9H0K1), sequence (Q9H0K1 whole entry): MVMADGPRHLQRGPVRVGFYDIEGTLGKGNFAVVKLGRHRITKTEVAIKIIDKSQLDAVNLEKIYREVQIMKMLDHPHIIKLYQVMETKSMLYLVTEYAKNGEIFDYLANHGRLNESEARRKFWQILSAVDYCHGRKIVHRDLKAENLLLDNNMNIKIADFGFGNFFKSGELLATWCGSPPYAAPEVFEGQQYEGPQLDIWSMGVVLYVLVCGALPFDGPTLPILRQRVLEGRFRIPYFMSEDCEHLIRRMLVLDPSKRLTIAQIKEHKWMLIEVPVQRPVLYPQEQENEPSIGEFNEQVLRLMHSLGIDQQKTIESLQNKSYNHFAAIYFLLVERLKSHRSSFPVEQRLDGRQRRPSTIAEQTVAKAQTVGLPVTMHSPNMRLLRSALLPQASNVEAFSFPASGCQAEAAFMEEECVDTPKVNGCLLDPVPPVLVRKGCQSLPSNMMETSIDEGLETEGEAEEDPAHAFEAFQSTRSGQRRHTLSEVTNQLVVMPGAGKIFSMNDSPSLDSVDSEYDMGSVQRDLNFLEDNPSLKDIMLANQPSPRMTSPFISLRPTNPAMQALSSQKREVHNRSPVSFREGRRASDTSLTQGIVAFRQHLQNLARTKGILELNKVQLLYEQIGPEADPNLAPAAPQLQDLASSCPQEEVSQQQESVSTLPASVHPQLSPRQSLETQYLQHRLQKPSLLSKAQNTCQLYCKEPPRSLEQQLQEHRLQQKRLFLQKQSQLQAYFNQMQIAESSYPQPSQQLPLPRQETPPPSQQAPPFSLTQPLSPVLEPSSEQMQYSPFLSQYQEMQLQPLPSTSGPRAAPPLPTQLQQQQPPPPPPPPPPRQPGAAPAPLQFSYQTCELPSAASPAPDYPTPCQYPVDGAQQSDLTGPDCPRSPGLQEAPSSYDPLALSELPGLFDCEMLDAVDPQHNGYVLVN

Turning to `N#Cc1cc(-c2ncnc(Nc3ccc(N4CCN(C5COC5)CC4)cc3)n2)ccc1OC1CCOCC1` [Compound 1, 5-(4-((4-(4-(oxetan-3-yl)piperazin-1-yl)phenyl)amino)-1,3,5-triazin-2-yl)-2-((tetrahydro-2H-pyran-4-yl)oxy)benzonitrile], the inhibition (as a rule, the drop in the measured response relative to a control, in per cent) at off-target kinases [1] (read-out: % Inhibition 1) is 99%; at off-target kinases [1] (read-out: % Inhibition 2) it was 97%; at off-target kinases [1] (read-out: % Inhibition Avg), 98%; at off-target kinases [2] (read-out: % Inhibition 1), 51%; at off-target kinases [2] (read-out: % Inhibition 2), 52%; on off-target kinases [2] (read-out: % Inhibition Avg), 51%. Moreover, the inhibition at off-target kinases [3] (read-out: % Inhibition 1) is 88%; on off-target kinases [3] (read-out: % Inhibition 2), 88%; on off-target kinases [3] (read-out: % Inhibition Avg), 88%; at off-target kinases [4] (read-out: % Inhibition 1), -5%; on off-target kinases [4] (read-out: % Inhibition 2), 8%; at off-target kinases [4] (read-out: % Inhibition Avg), 1%. Moreover, the inhibition was 11% on off-target kinases [5] (read-out: % Inhibition 1); 12% on off-target kinases [5] (read-out: % Inhibition 2); 12% at off-target kinases [5] (read-out: % Inhibition Avg); 85% on off-target kinases [6] (read-out: % Inhibition 1); 84% on off-target kinases [6] (read-out: % Inhibition 2); 84% at off-target kinases [6] (read-out: % Inhibition Avg).
